Laboratory results as given in patent US11219623B2, “Inflammasome inhibition for the treatment of Parkinson's disease, Alzheimer's disease and multiple sclerosis” (University of Kentucky Research Foundation, priority 2015, dated 2022).
≈ marks a conversion by molar mass, not a printed value. Entries after “also recorded” stand apart in the source; their conditions may differ.

Assays:
[1] = LogP, partition coefficient in 1-octanol; type: physicochemical; conditions: 1-octanol partition
Caspase-1 [2] = assay: iGLuc luminescence assay of ATP-induced Caspase-1 activation in J774 iGLuc cells; type: cell-based, mouse; conditions: for Caspase-1 cleavage (luminescence): ATP 5 mM, drug 1 nM-100 μM, N=3
Procedure: Caspase-1 is the enzyme at the core of the inflammasome complex and is an important danger response signal and mediator of RPE cell death in AMD. […] Importantly, there was some difference between individual compounds in terms of the dose response curve, emphasizing the need to test each compound (with unique R group(s)) individually.
To obtain the data set forth in FIGS. 64-73, an iGLuc assay was conducted (modified from Bartok et al. iGLuc: a luciferase-based inflammasome and protease activity reporter. Nature Methods 2013; 10(2):147-54). Briefly, 100,000 iGLuc cells per well were plated in a 96 well plate overnight. The next morning, media is aspirated from the plate and replaced with 75 μL of serum free DMEM with drugs (NRTIs or modified NRTIs) for 30 min. After 30 minutes of drug exposure, 20 mM ATP (25 μL) is added for a final concentration of 5 mM. 50 μL of media from each well is collected and 50 μL of coelenterazine 4.4 μM is added to each sample, and luminescence is read immediately.

Caspase-1 [3] = assay: Alu RNA-induced Caspase-1 activation, western blot, primary human RPE cells; type: cell-based; conditions: for Alu RNA-induced Caspase-1 maturation: 50-100 uM, 24 hours after Alu administration
From the text: The bottom row in FIG. 5 is a vinculin loading control.

[4] = test system: GFP-expressing lentivirus; assay: GFP-expressing lentivirus transduction/replication assay in HeLa cells; type: cell-based; conditions: 10 μM; 72 hours; MOI 20
Procedure: All drugs were added at a concentration of 10 μM. Cells were imaged for GFP expression 72 hours after addition of lentivirus. GFP-positive cells per field of view were recorded. n=4-11, error bars S.E.M. Reverse transcription of lentivirus is essential for GFP expression; modified NRTIs should not block reverse transcriptase, whereas NRTIs are known to block reverse transcriptase.
The present disclosure further provides the results of additional experiments in FIG. 21-FIG. 23.

[5] = test system: human LINE-1 retrotransposon; assay: EGFP cell culture L1 retrotransposition assay in HeLa cells; type: cell-based; conditions: 7 days after transfection, flow cytometry
Procedure: These findings pave way for the rational re-design and improvement of nucleoside analogs as novel therapeutics. The enhanced green fluorescent protein (EGFP) cell culture L1 retrotransposition assay was performed in HeLa cells. […] Transfected cells were selected in puromycin. 7 days after transfection, cells that underwent retrotransposition (EGFP-positive) were assayed by flow cytometry. Cells were gated based on background fluorescence of plasmid JM111, which has two point mutations in L1-ORF1 that abolish retrotransposition. Data are normalized with RPS set to 1.

IL-1 beta [6] = assay: LPS/ATP-induced IL-1 beta activation in Raji TK− and TK+ cells, western blot; type: cell-based
From the text: (§1) To determine whether LPS/ATP-induced inflammasome activation can be inhibited without RT inhibition, the present inventors utilized thymidine kinase-deficient (Raji/TK^−) and -expressing (Raji/TK^+) cells (Balzarini et al., 1989).

[7] = test system: Raji TK^+ and Raji TK^− cells; assay: Phosphorylation of AZT to AZT-triphosphate in Raji TK+ / TK− cells, LC-MS; type: in vitro ADME
From the text: as §1
FIG. 50 is a standard curve of AZT-TP standards (black circle). […] FIG. 50 is representative of two experiments.

wild-type mice [8] = assay: pAlu-induced RPE degeneration, mouse model of dry AMD; type: in vivo
Procedure: Mouse studies were conducted to study treatment with NRTIs or derivatives.

wild-type mice [9] = assay: Laser-induced choroidal neovascularization (CNV; wet AMD) in wild-type mice; conditions: N=16; for choroidal neovascularization (CNV) volume: intravitreous 0.14 nmol, day 7
human P2X7 receptor = biological target: T1, human P2X7 receptor (Homo sapiens, UniProt Q99572)
T1 sequence (Q99572 1-595): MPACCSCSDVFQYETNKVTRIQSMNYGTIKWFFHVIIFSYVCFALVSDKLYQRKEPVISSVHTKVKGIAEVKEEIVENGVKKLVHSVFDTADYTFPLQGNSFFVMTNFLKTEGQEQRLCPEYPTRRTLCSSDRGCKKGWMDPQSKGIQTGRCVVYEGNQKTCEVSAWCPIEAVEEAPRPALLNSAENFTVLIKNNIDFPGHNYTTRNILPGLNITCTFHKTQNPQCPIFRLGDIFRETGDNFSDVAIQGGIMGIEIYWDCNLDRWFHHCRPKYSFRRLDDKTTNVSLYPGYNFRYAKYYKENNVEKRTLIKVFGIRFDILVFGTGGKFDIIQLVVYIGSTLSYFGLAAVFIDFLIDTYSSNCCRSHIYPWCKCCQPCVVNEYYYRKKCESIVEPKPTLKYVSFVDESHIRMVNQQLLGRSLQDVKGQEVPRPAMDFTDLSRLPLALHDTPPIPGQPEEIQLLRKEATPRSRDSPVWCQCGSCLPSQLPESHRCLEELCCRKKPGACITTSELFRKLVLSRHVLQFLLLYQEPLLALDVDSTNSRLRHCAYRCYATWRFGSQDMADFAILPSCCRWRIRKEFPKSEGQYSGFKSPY

Solubility in water = type: physicochemical; conditions: aqueous buffer; Water pH 7.2 at 37° C.
Caspase-1 [10] = assay: Iron (III) ammonium citrate-induced Caspase-1 activation, western blot, primary human RPE cells; type: cell-based; conditions: 25 μM; Fe(III) ammonium citrate (100 μM); listed as TM-3TC
From the text: Caspase-1 activation (p20 subunit) in primary human retinal pigment epithelium (RPE) cells in the presence of iron (III) ammonium citrate was studied.
Caspase-1 activation (p10 subunit) in primary human RPE cells in the presence of iron (III) ammonium citrate was studied.
Alu RNA is a toxic endogenous retroelement that accumulates in and causes death of the RPE in patients with dry AMD. […] FAC activates Caspase-1 via an Alu RNA intermediate, and induces NLRP3-dependent RPE degeneration (Gelfand et al. Cell Reports 2015). Fe(III) ammonium citrate (100 μM)-induced Caspase-1 activation in primary human RPE cells, monitored by western blotting, is reduced by TM-3TC (25 μM), d4T-ene (25 μM), 2Me-d4T (25 μM), Me-AZT (25-100 μM), and 2Me-AZT (25 μM). N=3-4.

JR5558 mice = assay: Spontaneous CNV in JR5558 mice, fluorescein angiography dye leakage; type: in vivo, mouse
From the text: JR5558 mice develop spontaneous choroidal neovascularization (CNV) and are an animal model of wet/neovascular age-related macular degeneration (AMD). The activity of the CNV lesions can be monitored using fluorescein angiography to assess the degree of dye leakage from the lesions, as is done in humans with this disease. FIGS. 81 and 82 are representative images from two JR5558 mice (N=8). The first and third row of FIGS. 81 and 82 show time dependent dye leakage from pre-existing CNV lesions in the left eye (first row) and right eye (third row) of a first and second JR5558 mouse, respectively.

wild-type mice [11] = assay: Alu RNA-induced RPE degeneration, mouse model of dry AMD; conditions: intraperitoneal 25 mg/kg, twice daily for 6 days
mtDNA = assay: Relative quantity of mtDNA, quantitative PCR, primary human RPE cells; conditions: 50 μM; four days; relative to DMSO
IL-18 = assay: LPS/ATP-induced IL-18 maturation, mouse bone marrow-derived macrophages; type: cell-based; conditions: 100 uM; cell culture supernatants
IL-1 beta [12] = assay: MSU-induced IL-1 beta secretion from PMA-differentiated THP-1 monocytes, ELISA; type: cell-based, human; conditions: 25-1000 uM
From the text: Human THP-1 monocytes were differentiated into macrophages with PMA.
To illustrate this, human THP-1 monocytes were differentiated into macrophages with PMA. Treatment with MSU increased IL-1 beta secretion compared to non-treated cells. […]

Caspase-1 [13] = assay: LPS/ATP-induced Caspase-1 activation, mouse bone marrow-derived macrophages, western blot; conditions: 100 uM; cell culture supernatants
[14] = intraperitoneal 25 mg/kg twice daily

| SMILES | solubility (Solubility in water) [µg/mL] | logP [1] | Caspase-1 cleavage (luminescence) (Caspase-1 [2]) | Alu RNA-induced Caspase-1 maturation (Caspase-1 [3]) | lentivirus replication (GFP-positive cells per field) [4] | L1 retrotransposition (EGFP-positive cells) [5] | pAlu-induced RPE degeneration (wild-type mice [8]; [14]) | choroidal neovascularization (CNV) volume (wild-type mice [9]) | Alu RNA-induced RPE degeneration (wild-type mice [11]) | also measured |
| --- | --- | --- | --- | --- | --- | --- | --- | --- | --- | --- |
| Cc1cn([C@H]2C[C@H](N=[N+]=[N-])[C@@H](CO)O2)c(=O)[nH]c1=O [AZT, 3′-azido-2′,3′-dideoxythymidine, reference compound] | – | -0.41 | reduces Caspase-1 cleavage in a dose-dependent fashion | blocked | blocked lentivirus GFP expression | blocked L1 retrotransposition | – | – | – | Alu RNA-induced Caspase-1 activation/cleavage (Caspase-1 [3]; concentration not given): block Caspase-1 cleavage; IL-1 beta activation by LPS/ATP (IL-1 beta [6]; Raji TK+ cells): blocks IL-1 beta activation; IL-1 beta activation by LPS/ATP (IL-1 beta [6]; Raji TK− cells): blocks IL-1 beta activation; formation of AZT-triphosphate (AZT-TP) ([7]; Raji TK+ cells): produced AZT-TP; formation of AZT-triphosphate (AZT-TP) ([7]; Raji TK− cells): not detectable; pAlu-induced RPE degeneration (wild-type mice [8]; intraperitoneal administration, dose not stated): blocked RPE degeneration; laser injury-induced CNV volume (wild-type mice [9]; intravitreous 0.55 nmol): reduced laser injury-induced CNV volume; P2X7-dependent YO-PRO-1 uptake induced by bzATP (human P2X7 receptor; HEK293 stably expressing human P2X7, concentration not given): inhibited P2X7-dependent uptake |
| COC[C@@H]1O[C@H](n2ccc(N(C)C)nc2=O)CS1 [Kamuvudine 3Me-3TC, 4-(dimethylamino)-1-[(2R,5S)-2-(methoxymethyl)-1,3-oxathiolan-5-yl]-1,2-dihydropyrimidin-2-one] | 7000 (≈ 25.8 mM) | 0.09 | reduces Caspase-1 cleavage in a dose-dependent fashion | – | do not block lentivirus replication | no effect on L1 activity | protects against RPE degeneration | – | protects against RPE degeneration | Alu RNA induced Caspase-1 activation (Caspase-1 [3]; 25-100 μM (25 and 100 μM), listed as TM-3TC): blocked Alu-induced Caspase-1 activation; also recorded: reduced; iron-induced Caspase-1 activation (Caspase-1 [10]): blocked iron-induced Caspase-1 activation; also recorded: reduced; CNV lesion leakage compared to 3TC (JR5558 mice; 62.5 ng vs 125 ng 3TC): greater reduction in CNV lesion leakage; activity (dye leakage) of pre-existing CNV lesions (JR5558 mice; single intravitreous 62.5 ng, 3 days after administration): suppress the activity of pre-existing CNV lesions; relative quantity of mtDNA (mtDNA depletion) (mtDNA): do not reduce mtDNA |
| Clc1cccc(-c2nnnn2Cc2cccnc2)c1Cl [Kamuvudine A438079] | – | – | – | – | – | – | – | – | – | P2X7-mediated YO-PRO-1 dye uptake induced by bzATP (human P2X7 receptor; 64 μM drug, bzATP 100 μM, n=12): inhibited |
| Nc1ncnc2c1ncn2[C@@H]1O[C@H](CO)C[C@H]1O [cordycepin] | – | – | – | blocked | – | – | – | – | – | IL-18 maturation induced by LPS/ATP (IL-18): inhibit; IL-1beta secretion induced by MSU (IL-1 beta [12]): did not significantly affect IL-1beta secretion; Caspase-1 activation (active p20 band) induced by LPS/ATP (Caspase-1 [13]): inhibit Caspase-1 activation |

Continued, in another order:

| solubility (Solubility in water) [µg/mL] | SMILES | logP [1] | Caspase-1 cleavage (luminescence) (Caspase-1 [2]) | Alu RNA-induced Caspase-1 maturation (Caspase-1 [3]) | lentivirus replication (GFP-positive cells per field) [4] | L1 retrotransposition (EGFP-positive cells) [5] | pAlu-induced RPE degeneration (wild-type mice [8]; [14]) | choroidal neovascularization (CNV) volume (wild-type mice [9]) | Alu RNA-induced RPE degeneration (wild-type mice [11]) | also measured |
| --- | --- | --- | --- | --- | --- | --- | --- | --- | --- | --- |
| 10 (≈ 0.0309 mM) | CCOC[C@H]1O[C@@H](n2cc(C)c(=O)n(CC)c2=O)C[C@@H]1N=[N+]=[N-] [Kamuvudine 2Et-AZT, 1-[(2R,4S,5 S)-4-azido-5-(ethoxymethyl)oxolan-2-yl]-3-ethyl-5-methyl-1,2,3,4-tetrahydropyrimidine-2,4-dione] | 1.17 | reduces Caspase-1 cleavage in a dose-dependent fashion | – | – | no effect on L1 activity | protects against RPE degeneration | reduced choroidal neovascularization (CNV) volume | – | – |
| 1500 (≈ 5.63 mM) | CCn1c(=O)c(C)cn([C@H]2C=C[C@@H](COC)O2)c1=O [O-Me N-Et d4T, 3-ethyl-1-[(2R,5S)-5-(methoxymethyl)-2,5-dihydrofuran-2-yl]-5-methyl-1,2,3,4-tetrahydropyrimidine-2,4-dione] | 0.99 | reduces Caspase-1 cleavage in a dose-dependent fashion | – | – | – | – | reduced choroidal neovascularization (CNV) volume | protects against Alu RNA-induced RPE degeneration | reduction of inflammasome activation (Caspase-1 [2]; ATP (5 mM), mouse J774 iGLuc cells, FIGS. 70-73): about 55%; Alu RNA induced Caspase-1 activation (Caspase-1 [3]; 25 μM, N=3-4): reduced |
